Residues, ends and D or L forms follow the SMILES beside them. *: point of attachment. Biotin = O=C1N[C@H]2[C@H](CS[C@H]2CCCCC(=O)*)N1
Legend:
[1] = Peptide detection in brain cortex after photothrombotic ischemia; format: in vivo; details: 3 nmol/g i.v. 1 h after damage, male and female mice sacrificed 5 h post-stroke; Fluorescein Avidin D (Fig 5C)
Protocol: (§1) Vehicle (saline), Bio-TMyc or Bio-TT1Ct (3 nmol/g) were retro-orbitally injected in mice one hour after induction of photothrombotic damage or, alternatively, undamaged animals. In the first case, animals were sacrificed 5 h after damage induction while, the second group was sacrificed 30 min after peptide administration. The details of brain fixation and cryoprotection for peptide visualization and/or immunohistochemistry are provided in the Supplementary material. […]
(§2) Finally, the sa mple s were mounted in Prolong Diamond. The images were acquired using an inverted Zeiss LSM 710 laser confocal microscope (Jena, Germany) with a 40x or 63x Plan-Apochromatic oil immersion objective. Images corre spond to single se ctions and were normalized for eac h colour se para tely and process ed for presenta tion with ImageJ (NIH Image) and Fiji.
(§3) Peptide visualization and immunohistochemis tr y in brain cortex
(§4) For peptide visua liz ation in undamaged or damaged brains, animals were deeply anes thetized and intra cardially perfus ed with cold PBS and 4% paraformalde hyde in PBS. Brains were post-fixed in the sa m e fixative at 4°C for 24 h and cryoprote cted in 30% suc ros e for 48 h at 4°C. […]

[2] = Peptide delivery to brain cortex of undamaged animals; format: in vivo; details: 3 nmol/g i.v. (retro-orbital), undamaged male mice, sacrificed 30 min after; Fluorescein Avidin D (Fig S5)
Protocol: as §1, §2, §3, §4

MEF2D = assay: Western blot in excitotoxicity; format: cell-based, rat; details: peptide 15 µM 30 min, NMDA 30-120 min; normalized to NSE; differences not statistically significant compared to TMyc; n = 5
Protocol: (§5) amounts were combined with streptavidin-agarose beads previously was hed with NP-40 lysis buffer and incubated at room temperature for 1.5 h with agitation. Sedimented beads were was hed 3 times with the NP-40 lysis buffer to remove poss ible non-spe cifica lly bounded proteins, and peptides and their interacting proteins were released by incubation at 50°C for 40 min in RI P A modifie d buffer (50 mM Tris HCl pH 8.0, 150 mM NaC l, 1% sodium deoxycholate , 1% NP-40) combined with protease and phospha tase inhibitors as before .
(§6) Prote omic analysis of Bio-sT T1Ct-inte racting proteins
(§7) Prote omic analys is was performed in Pros taR (1.34.6) software tool, using the protocol for protein-level analys is. Prote omic abundanc es from 4 independent experiments were log-transforme d and filtered follow ing quality parameters: proteins present in at least >50% of one of the conditions and identifie d by at least 2 unique peptides . After, data was normalized by LOESS (locally es tima te d sc atterplot smoothing, k=0.7), and POV (par tially obse rved values ) and ME C (miss ing in entire condition values ) imputations were made using, respec tive ly, KNN (k-neares t-neighbour k=10) and det.quantile (quantile imputation using quantile = 2,5).
(§8) Differential analys is was performed using limma (3.16). Multiple comparison p-values where calibrated using sl i m algorithm and the FDR (fals e disc overy rate) is indicated for eac h comparison. For PCA (principal component analys is ), filte red, normalized and imputed data was use d corre cted for batch ef fe ct using removeBatc hEffe ct {limma} function. […]
(§9) dry milk solution in Tris Buffere d Saline-Tween (TBS-T, 20 mM Tris HCl pH 7.5, 137 mM NaC l, 0.05% Tween-20) and incubated overnight at 4°C with prima ry antibodies . […] To conclude, immunore activity was detecte d using Clar ity Wes ter n ECL Blotting Substrate (BioRad) and band intensity was quantified by dens itome tric analys is (Photos hop, Adobe). […] Multiple independent experiments were car r ied out and quantitated as detailed in the figure legends . […]

pCREB = assay: Western blot in excitotoxicity; format: cell-based, rat; details: peptide 15 µM 30 min, NMDA 30-120 min; normalized to NSE; differences not statistically significant compared to TMyc; n = 5
Protocol: as §5, §6, §7, §8, §9

TrkB-T1 = assay: Western blot in excitotoxicity; format: cell-based, rat; details: peptide 15 µM 30 min, NMDA 30-120 min; compared to TMyc
Protocol: as §5, §6, §7, §8, §9

Row | Compound | Time of peptide detection in brain cortex after administration [1] | Crossing of the BBB and delivery to cortical cells [2] | Effect on MEF2D levels (MEF2D) | Effect on pCREB levels (pCREB) | Effect on TrkB-T1 regulation (TrkB-T1)
1 | CC[C@H](C)[C@H](NC(=O)[C@H](CC(C)C)NC(=O)[C@H](CCCCN)NC(=O)[C@H](CCC(N)=O)NC(=O)[C@H](CCC(=O)O)NC(=O)[C@H](CCC(=O)O)NC(=O)[C@H](C)NC(=O)[C@H](CCCNC(=N)N)NC(=O)[C@H](CCCNC(=N)N)NC(=O)[C@H](CCCNC(=N)N)NC(=O)[C@H](CCC(N)=O)NC(=O)[C@H](CCCNC(=N)N)NC(=O)[C@H](CCCNC(=N)N)NC(=O)[C@H](CCCCN)NC(=O)[C@H](CCCCN)NC(=O)[C@H](CCCNC(=N)N)NC(=O)CNC(=O)[C@H](Cc1ccc(O)cc1)NC(=O)CCCC[C@@H]1SC[C@@H]2NC(=O)N[C@@H]21)C(=O)N[C@@H](CO)C(=O)N[C@@H](CCC(=O)O)C(=O)N[C@@H](CCC(=O)O)C(=O)N[C@@H](CC(=O)O)C(=O)N[C@@H](CC(C)C)C(=O)N[C@@H](CC(C)C)C(=O)N[C@@H](CCCNC(=N)N)C(N)=O [Bio-TMyc, reference compound] (Biotin-YGRKKRRQRRRAEEQKLISEEDLLR-NH2) | at least 4 h | able to cross the BBB and efficiently reach most cortical cells in 30 min | – | – | –
2 | Ac-YGRKKRRQRRRPPFVLFHKIPLDG-NH2 [TT1Ct] | – | – | partially preserved | partially preserved | did not have significant effects
